Results on 24 compounds are retold here after patent US10774082B2, “Quinazoline compound” (Astellas Pharma Inc., priority 2017, dated 2020).

In one assay the test system is NCI-H1373 cells. The assay is described as follows: Anchorage-independent cell proliferation inhibitory action, NCI-H1373 spheroid three-dimensional culture. Particulars: read-out: IC50 (anchorage-independent cell proliferation inhibition). Format: cell-based, Human. The procedure, abridged:
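KRAS G12C NCI-H1373 cells were grown as spheroids in low-attachment U-bottom wells and treated the next day with compound, six points from 1,000 to 0.3 nM final. After six days at 37°C, viability was read by CellTiter-Glo luminescence. IC50 was fitted by Sigmoid-Emax regression, with DMSO set as 0% and cell-free medium as 100% inhibition.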

For assay [1], the system named is ERK phosphorylation (Thr 202/Tyr 204) in NCI-H1373 cells. The assay is described as follows: ERK phosphorylation inhibitory action in NCI-H1373 (Cell ELISA). Format: cell-based, Human. As to conditions: read-out: IC50 (ERK phosphorylation inhibition). The procedure, abridged: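 KRAS G12C NCI-H1373 cells (2×10^4/well) were treated with compound (six points, 1,000–0.3 nM final) for 2 h. Phospho-ERK Thr202/Tyr204 was measured by in-cell ELISA with an IRDye 800CW secondary antibody. IC50 was fitted by sigmoid-Emax regression against DMSO (0%) and 1 μM trametinib (100%).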
(In an ELISA, binding on a coated surface is turned into a signal by an enzyme label.)

Where [2] appears, read: Homo sapiens, NCI-H1373, 144 h, NCI-H1373 spheroid, six days, CellTiter Glo.
Where [3] appears, read: Homo sapiens, NCI-H1373, 2 h, NCI-H1373 cells, cultured for 2 hours, 100% = 1 μM Trametinib.
[4] abbreviates: NCI-H1373 spheroid, six days, CellTiter Glo.
Where [5] appears, read: NCI-H1373 cells, cultured for 2 hours, 100% = 1 μM Trametinib.

Like-named read-outs stand apart in the source and are kept apart here.

Take `C=CC(=O)N1CC2(CCN(c3nc(OC4CCN(C5CCOCC5)CC4)nc4c(OCC(F)(F)F)c(-c5c(C)ccc6[nH]ncc56)c(C=C)cc34)CC2)C1` (single isomer, unassigned) [Ex 39]: the IC50 amounted to 4.3 nM with NCI-H1373 cells (setting [2]) and 3 nM in assay [1] (setting [3]).
In the same order, the values of `C=CC(=O)N1CCN(c2nc(OC3CCN(C)CC3)nc3c(F)c(-c4c(C)ccc5[nH]ncc45)c(Cl)cc23)CC1` [Compound C, reference compound] are 320 nM and 210 nM.
In the same order, the values of `C=CC(=O)N1CC2(CCN(c3nc(OC4CCN(C)CC4)nc4c(OCC)c(-c5c(C)ccc6[nH]ncc56)c(C5CC5)cc34)CC2)C1` [Ex 2] are 6.2 nM and 4.4 nM.
For `C=CC(=O)N1CC2(CCN(c3nc(OC4CCN(C)CC4)nc4c(OCC(F)F)c(-c5c(C)ccc6[nH]ncc56)c(C5CC5)cc34)CC2)C1` [Ex 3], the IC50 stood at 4.7 nM in the assay with NCI-H1373 cells (setting [2]) and 3.3 nM in assay [1] (setting [3]).
Regarding `C=CC(=O)N1CC2(CCN(c3nc(OC[C@@H]4CCCN4C)nc4c(OCC(F)F)c(-c5c(C)ccc6[nH]ncc56)c(C5CC5)cc34)CC2)C1` [Ex 4], the IC50 in the assay with NCI-H1373 cells (setting [2]) is 3.4 nM; in assay [1] (setting [3]), 2.9 nM.
In the same order, the values of `C=CC(=O)N1CC2(CCN(c3nc(OC4CCN(CC)CC4)nc4c(OCC)c(-c5c(C)ccc6[nH]ncc56)c(C=C)cc34)CC2)C1` [Ex 7] are 11 nM and 8.8 nM.
In the same order, the values of `C=CC(=O)N1CC2(CCN(c3nc(OC4CCN(C)CC4)nc4c(OCC)c(-c5c(C)ccc6[nH]ncc56)c(C=C)cc34)CC2)C1` [Ex 24] are 6.1 nM and 3.7 nM.
As to `C=CC(=O)N1CC2(CCN(c3nc(OC4CCN(CCOC)CC4)nc4c(OCC(F)(F)F)c(-c5c(C)ccc6[nH]ncc56)c(C5CC5)cc34)CC2)C1` [Ex 25], the IC50 in assay [1] (setting [3]) was 2.5 nM.
Regarding `C=CC(=O)N1CC2(CCN(c3nc(OC4CCN(CCOC)CC4)nc4c(OCC(F)(F)F)c(-c5c(C)ccc6[nH]ncc56)c(C=C)cc34)CC2)C1` [Ex 26], in assay [1] (setting [3]), the IC50 is 3.3 nM.
Still for that read-out and setting: with `C=CC(=O)N1CC2(CCN(c3nc(OC4CCN(CCCOC)CC4)nc4c(OCC(F)(F)F)c(-c5c(C)ccc6[nH]ncc56)c(C5CC5)cc34)CC2)C1` [Ex 28] the figure was 3.5 nM.
In the case of `C=CC(=O)N1CC2(CCN(c3nc(OC4CCN(C5CCOCC5)CC4)nc4c(OCC(F)(F)F)c(-c5c(C)ccc6[nH]ncc56)c(C=C)cc34)CC2)C1` [Ex 30], the IC50 in the assay on NCI-H1373 cells (setting [2]) is 5.4 nM; in assay [1] (setting [3]), 3.1 nM.
As for `C=CC(=O)N1CC2(CCN(c3nc(OC[C@@H]4CCCN4C)nc4c(OC5CCC5)c(-c5c(C)ccc6[nH]ncc56)c(C=C)cc34)CC2)C1` [Example 15], the IC50 with NCI-H1373 cells (Homo sapiens, NCI-H1373, 144 h) worked out at 14 nM; in assay [1] (Homo sapiens, NCI-H1373, 2 h), 11 nM.
In the same order, the values of `C=CC(=O)N1CC2(CCN(c3nc(OC[C@@H]4CCCN4C)nc4c(OCC)c(-c5c(C)ccc6[nH]ncc56)c(C=C)cc34)CC2)C1` [Example 16] are 10 nM and 9.1 nM.
As to `C=CC(=O)N1CC2(CCN(c3nc(OC4CCN(CCOCC)CC4)nc4c(OCC(F)(F)F)c(-c5c(C)ccc6[nH]ncc56)c(C=C)cc34)CC2)C1` [Example 29], the IC50 with NCI-H1373 cells (setting [2]) amounted to 10 nM; in assay [1] (setting [3]) it was 4.2 nM.
In the same order, the values of `C=CC(=O)N1CC2(CCN(c3nc(OC4CCN(CCOC)CC4)nc4c(OCC(F)F)c(-c5c(C)ccc6[nH]ncc56)c(C5CC5)cc34)CC2)C1` [Example 32] are 7.1 nM and 5.7 nM.
In the same order, the values of `C=CC(=O)N1CC2(CCN(c3nc(OC4CCN(C5COC5)CC4)nc4c(OCC(F)(F)F)c(-c5c(C)ccc6[nH]ncc56)c(C=C)cc34)CC2)C1` [Example 33] are 8.7 nM and 4.6 nM.
In the same order, the values of `C=CC(=O)N1CC2(CCN(c3nc(OC4CCN(C5COC5)CC4)nc4c(OCC)c(-c5c(C)ccc6[nH]ncc56)c(C5CC5)cc34)CC2)C1` [Example 34] are 7.5 nM and 5.8 nM.
With `C=CC(=O)N1CC2(CCN(c3nc(OC4CCN(CCOC)CC4)nc4c(OCC(F)(F)F)c(-c5c(C)ccc6[nH]ncc56)c(C5CC5)cc34)CC2)C1` [Example 35], the IC50 (with NCI-H1373 cells (setting [4]); in assay [1] (setting [5])) was 2.5 nM in each case.
With `C=CC(=O)N1CC2(CCN(c3nc(OC4CCN(CCOCC)CC4)nc4c(OCC(F)(F)F)c(-c5c(C)ccc6[nH]ncc56)c(C=C)cc34)CC2)C1` [Example 37], the IC50 is 8.8 nM in the assay on NCI-H1373 cells (setting [4]) and 2.5 nM in assay [1] (setting [5]).
In the same order, the values of `C=CC(=O)N1CC2(CCN(c3nc(OC4CCN(CC(C)(C)O)CC4)nc4c(OCC(F)(F)F)c(-c5c(C)ccc6[nH]ncc56)c(C=C)cc34)CC2)C1` [Example 40] are 5.1 nM and 3.1 nM.
As for `C=CC(=O)N1CC2(CCN(c3nc(N4CCN(C)CC4)nc4c(OCC(F)(F)F)c(-c5c(C)ccc6[nH]ncc56)c(C=C)cc34)CC2)C1` [Example 50], the IC50 in the assay with NCI-H1373 cells (setting [2]) was found to be 16 nM; in assay [1] (setting [3]) it was 6.4 nM.
With `C=CC(=O)N1CC2(CCN(c3nc(OC4CCN(C)CC4F)nc4c(OCC(F)(F)F)c(-c5c(C)ccc6[nH]ncc56)c(C=C)cc34)CC2)C1` (stereo not drawn) [Example 52], the IC50 with NCI-H1373 cells (setting [2]) amounted to 16 nM; in assay [1] (setting [3]), 6.7 nM.
On the same counts, the results for `C=CC(=O)N1CC2(CCN(c3nc(OC4CCN(Cc5ccccn5)CC4)nc4c(OCC(F)(F)F)c(-c5c(C)ccc6[nH]ncc56)c(C=C)cc34)CC2)C1` [Example 56] are 21 nM and 7.7 nM.
In the same order, the values of `C=CC(=O)N1CC2(CCN(c3nc(N4CC(N(C)C)C4)nc4c(OCC(F)(F)F)c(-c5c(C)ccc6[nH]ncc56)c(C=C)cc34)CC2)C1` [Example 65] are 27 nM and 9.3 nM.
